pIC50: −log10 of the molar value.
Key:
Type in all cases: cell-based
EGFR WT [1] = target: T1, EGFR WT (Homo sapiens, UniProt P00533); assay: Activity for inhibiting EGFR (Table A), EGFR WT; conditions: read-out: EGFR WT, potency code (IC50)
EGFR V3 [2] = target: T2, EGFR V3 (Homo sapiens, UniProt P00533, DELINS30-297G); assay: Activity for inhibiting EGFR (Table A), EGFR V3 (EGFR-Viii); conditions: read-out: EGFR V3, potency code (IC50)
T2 construct: expressed in transfected cells; host or cells: BaF3 (murine pro-B), retroviral pMXs-IRES-Blasticidin
T2 sequence (P00533 with tags, fused parts or gaps DELINS30-297G): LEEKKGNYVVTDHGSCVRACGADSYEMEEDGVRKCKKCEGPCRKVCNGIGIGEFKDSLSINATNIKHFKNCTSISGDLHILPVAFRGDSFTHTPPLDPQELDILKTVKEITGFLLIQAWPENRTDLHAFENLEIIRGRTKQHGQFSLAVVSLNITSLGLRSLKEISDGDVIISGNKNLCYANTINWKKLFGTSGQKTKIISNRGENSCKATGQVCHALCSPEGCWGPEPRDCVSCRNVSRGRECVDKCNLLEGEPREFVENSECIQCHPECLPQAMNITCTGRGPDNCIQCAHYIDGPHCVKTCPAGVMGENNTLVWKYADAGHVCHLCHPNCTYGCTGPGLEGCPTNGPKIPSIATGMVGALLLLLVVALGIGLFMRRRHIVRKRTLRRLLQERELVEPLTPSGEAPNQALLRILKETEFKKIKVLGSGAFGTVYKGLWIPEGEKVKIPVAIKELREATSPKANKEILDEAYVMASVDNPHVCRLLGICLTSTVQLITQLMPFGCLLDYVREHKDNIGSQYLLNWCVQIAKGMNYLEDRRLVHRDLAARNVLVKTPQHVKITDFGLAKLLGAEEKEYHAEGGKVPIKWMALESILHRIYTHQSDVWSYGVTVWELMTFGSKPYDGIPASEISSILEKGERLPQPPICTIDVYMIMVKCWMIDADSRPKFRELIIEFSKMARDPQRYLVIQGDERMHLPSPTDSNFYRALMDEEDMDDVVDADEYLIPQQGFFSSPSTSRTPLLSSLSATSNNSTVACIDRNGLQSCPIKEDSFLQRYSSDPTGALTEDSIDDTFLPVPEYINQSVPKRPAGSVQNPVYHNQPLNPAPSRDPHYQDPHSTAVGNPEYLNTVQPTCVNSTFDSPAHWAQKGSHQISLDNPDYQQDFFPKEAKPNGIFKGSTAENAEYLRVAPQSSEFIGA

HER2 S310F [3] = target: T3, HER2 S310F (Homo sapiens, UniProt P04626, S310F); assay: Activity for inhibiting HER2 (Table B), HER2 S310F; conditions: read-out: HER2 S310F, potency code (IC50)
T3 construct: expressed in transfected cells; host or cells: BaF3 (murine pro-B)
T3 sequence (P04626 23-1255 S310F): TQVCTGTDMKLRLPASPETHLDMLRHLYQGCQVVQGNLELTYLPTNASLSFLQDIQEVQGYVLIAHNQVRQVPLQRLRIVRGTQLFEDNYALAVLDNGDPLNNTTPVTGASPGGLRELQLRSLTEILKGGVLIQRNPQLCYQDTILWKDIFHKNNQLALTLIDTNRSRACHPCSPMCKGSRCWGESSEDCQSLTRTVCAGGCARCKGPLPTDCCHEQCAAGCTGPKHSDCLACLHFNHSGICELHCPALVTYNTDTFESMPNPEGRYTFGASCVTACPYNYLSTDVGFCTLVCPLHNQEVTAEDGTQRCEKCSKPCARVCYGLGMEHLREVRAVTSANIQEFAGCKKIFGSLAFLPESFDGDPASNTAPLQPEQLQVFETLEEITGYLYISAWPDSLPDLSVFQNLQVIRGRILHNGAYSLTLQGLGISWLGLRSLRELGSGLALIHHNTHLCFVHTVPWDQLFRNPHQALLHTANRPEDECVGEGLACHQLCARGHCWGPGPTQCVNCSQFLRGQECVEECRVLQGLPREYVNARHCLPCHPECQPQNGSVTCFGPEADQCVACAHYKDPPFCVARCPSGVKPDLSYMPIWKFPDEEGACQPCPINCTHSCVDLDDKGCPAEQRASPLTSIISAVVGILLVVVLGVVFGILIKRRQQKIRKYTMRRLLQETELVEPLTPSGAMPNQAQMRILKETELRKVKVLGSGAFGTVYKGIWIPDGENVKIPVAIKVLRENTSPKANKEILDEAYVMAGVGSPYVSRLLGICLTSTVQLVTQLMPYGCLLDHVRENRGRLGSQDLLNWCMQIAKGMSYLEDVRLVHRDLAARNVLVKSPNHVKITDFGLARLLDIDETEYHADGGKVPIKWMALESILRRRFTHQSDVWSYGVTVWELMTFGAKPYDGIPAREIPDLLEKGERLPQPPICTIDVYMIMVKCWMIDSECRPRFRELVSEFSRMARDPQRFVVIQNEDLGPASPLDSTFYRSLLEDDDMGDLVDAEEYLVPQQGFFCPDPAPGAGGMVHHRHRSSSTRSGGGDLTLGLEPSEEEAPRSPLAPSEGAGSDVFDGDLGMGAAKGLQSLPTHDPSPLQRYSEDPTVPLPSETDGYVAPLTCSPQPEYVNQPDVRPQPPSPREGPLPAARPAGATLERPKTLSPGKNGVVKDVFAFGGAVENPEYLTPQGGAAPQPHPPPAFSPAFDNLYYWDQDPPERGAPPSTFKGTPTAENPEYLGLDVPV
Experimental: (§1) EC50 values were determined with the same application.

HER2 YVMA [4] = target: T4, HER2 YVMA (Homo sapiens, UniProt P04626, INS775YVMA); assay: Activity for inhibiting HER2 (Table B), HER2 YVMA; conditions: read-out: HER2 YVMA, potency code (IC50)
T4 construct: expressed in transfected cells; host or cells: BaF3 (murine pro-B)
T4 sequence (P04626 with tags, fused parts or gaps INS775YVMA): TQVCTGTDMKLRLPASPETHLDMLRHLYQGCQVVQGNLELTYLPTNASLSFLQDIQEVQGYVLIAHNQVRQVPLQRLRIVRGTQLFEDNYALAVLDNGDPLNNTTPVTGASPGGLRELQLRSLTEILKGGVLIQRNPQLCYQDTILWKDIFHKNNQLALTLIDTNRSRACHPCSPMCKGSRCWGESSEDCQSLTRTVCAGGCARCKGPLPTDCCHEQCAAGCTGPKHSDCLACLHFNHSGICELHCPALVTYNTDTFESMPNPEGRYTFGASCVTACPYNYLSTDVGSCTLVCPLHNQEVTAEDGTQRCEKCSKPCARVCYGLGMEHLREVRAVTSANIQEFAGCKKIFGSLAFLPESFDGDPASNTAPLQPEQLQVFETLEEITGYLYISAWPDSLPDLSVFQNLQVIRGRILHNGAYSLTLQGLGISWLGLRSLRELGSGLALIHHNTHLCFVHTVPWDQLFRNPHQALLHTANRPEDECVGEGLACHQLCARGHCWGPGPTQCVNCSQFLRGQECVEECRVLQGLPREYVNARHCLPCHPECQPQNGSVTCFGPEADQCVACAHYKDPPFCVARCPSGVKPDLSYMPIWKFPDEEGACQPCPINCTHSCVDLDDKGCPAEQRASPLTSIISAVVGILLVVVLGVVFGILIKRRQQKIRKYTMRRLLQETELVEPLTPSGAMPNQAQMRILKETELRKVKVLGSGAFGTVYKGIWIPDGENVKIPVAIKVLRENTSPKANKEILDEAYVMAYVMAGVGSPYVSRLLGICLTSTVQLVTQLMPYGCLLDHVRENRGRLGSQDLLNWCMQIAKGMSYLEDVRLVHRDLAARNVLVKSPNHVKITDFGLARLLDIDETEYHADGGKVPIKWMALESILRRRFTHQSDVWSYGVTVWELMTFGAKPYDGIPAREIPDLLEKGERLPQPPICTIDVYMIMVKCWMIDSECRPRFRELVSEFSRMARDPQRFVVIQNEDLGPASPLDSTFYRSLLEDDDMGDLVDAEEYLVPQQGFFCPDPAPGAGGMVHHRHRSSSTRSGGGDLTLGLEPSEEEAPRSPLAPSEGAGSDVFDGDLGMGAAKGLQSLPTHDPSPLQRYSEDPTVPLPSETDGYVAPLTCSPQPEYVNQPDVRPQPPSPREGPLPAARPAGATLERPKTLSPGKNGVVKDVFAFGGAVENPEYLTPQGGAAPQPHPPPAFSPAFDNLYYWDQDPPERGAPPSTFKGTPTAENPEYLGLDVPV
Experimental: as §1

EGFR WT [5] = target: T1, EGFR WT; assay: BaF3 cell proliferation assay, EGFR WT (Table A); conditions: potency code, 3 days, CellTiterGlo, read-out: EGFR WT (Activity for Inhibiting EGFR)
Procedure, shortened: (§2)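 BaF3 cells were infected twice with retrovirus carrying the mutant (pMXs-IRES-Blasticidin, 8 μg/ml polybrene, spinoculation), then selected in 10 μg/ml blasticidin for one week. Resistant pools were then grown without IL-3 to select for IL-3-independent growth. EC50 values were derived from proliferation.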

EGFR V3 [6] = target: T2, EGFR V3; assay: BaF3 cell proliferation assay, EGFR V3 (Table A); conditions: potency code, 3 days, CellTiterGlo, read-out: EGFR V3 (Activity for Inhibiting EGFR)
Procedure, shortened: as §2

HER2 S310F [7] = target: T3, HER2 S310F; assay: BaF3 cell proliferation assay, HER2 S310F (Table B); conditions: potency code, 3 days, CellTiterGlo, read-out: HER2 S310F (Activity for Inhibiting HER2)
HER2 YVMA [8] = target: T4, HER2 YVMA; assay: BaF3 cell proliferation assay, HER2 YVMA (Table B); conditions: potency code, 3 days, CellTiterGlo, read-out: HER2 YVMA (Activity for Inhibiting HER2)

T1 sequence (P00533 25-1210 N540K): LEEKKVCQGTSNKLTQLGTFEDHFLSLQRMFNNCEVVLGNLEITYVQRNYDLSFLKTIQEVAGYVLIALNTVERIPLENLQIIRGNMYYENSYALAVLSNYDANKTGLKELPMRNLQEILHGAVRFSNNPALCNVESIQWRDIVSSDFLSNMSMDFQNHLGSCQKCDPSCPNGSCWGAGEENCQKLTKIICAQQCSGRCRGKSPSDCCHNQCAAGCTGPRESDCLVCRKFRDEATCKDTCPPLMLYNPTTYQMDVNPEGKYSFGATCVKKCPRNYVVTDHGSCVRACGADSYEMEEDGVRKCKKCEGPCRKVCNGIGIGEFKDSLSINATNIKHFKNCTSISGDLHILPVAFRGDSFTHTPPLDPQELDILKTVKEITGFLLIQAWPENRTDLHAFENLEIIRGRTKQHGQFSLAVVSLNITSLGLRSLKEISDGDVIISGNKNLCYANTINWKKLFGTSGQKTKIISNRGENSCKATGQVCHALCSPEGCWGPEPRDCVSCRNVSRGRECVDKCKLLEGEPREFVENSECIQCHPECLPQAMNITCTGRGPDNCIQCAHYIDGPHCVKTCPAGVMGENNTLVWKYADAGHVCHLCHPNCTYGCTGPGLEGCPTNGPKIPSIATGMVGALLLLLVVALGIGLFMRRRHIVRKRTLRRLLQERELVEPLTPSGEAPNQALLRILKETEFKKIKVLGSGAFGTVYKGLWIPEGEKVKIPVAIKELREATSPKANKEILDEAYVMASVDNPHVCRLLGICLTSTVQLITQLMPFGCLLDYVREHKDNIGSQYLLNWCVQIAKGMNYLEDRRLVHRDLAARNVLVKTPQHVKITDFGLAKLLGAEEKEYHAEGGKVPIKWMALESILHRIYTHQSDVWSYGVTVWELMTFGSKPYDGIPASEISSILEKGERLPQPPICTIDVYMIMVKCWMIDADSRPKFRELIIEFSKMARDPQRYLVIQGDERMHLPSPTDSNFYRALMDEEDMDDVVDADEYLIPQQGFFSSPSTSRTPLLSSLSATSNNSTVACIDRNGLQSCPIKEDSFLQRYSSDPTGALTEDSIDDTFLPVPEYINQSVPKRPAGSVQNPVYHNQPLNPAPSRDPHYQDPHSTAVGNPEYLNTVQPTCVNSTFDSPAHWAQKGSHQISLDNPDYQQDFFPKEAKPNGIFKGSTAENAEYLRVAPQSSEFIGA

Row | SMILES | pIC50 (EGFR WT [1]) | pIC50 (EGFR V3 [2]) | pIC50 (HER2 S310F [3]) | pIC50 (HER2 YVMA [4]) | pIC50 (EGFR WT [5]) | pIC50 (EGFR V3 [6]) | pIC50 (HER2 S310F [7]) | pIC50 (HER2 YVMA [8])
1 | C=CC(=O)Nc1cc2c(Nc3ccc(OCc4cccc(F)c4)c(Cl)c3)ncnc2cc1OCCN1CC(OC)C1 [compound 143] | 6.52 to 6.70 | 7.00 to 7.30 | 7.30 to 7.52 | 6.70 to 7.00 | 6.52 to 6.70 | 7.00 to 7.30 | 7.30 to 7.52 | 6.70 to 7.00
2 | C=CC(=O)Nc1cc2c(Nc3ccc(OCc4ccccn4)c(Cl)c3)ncnc2cc1N1CC2(CN(C)C2)C1 [compound 45] | 6.00 to 6.30 | 6.52 to 6.70 | 6.30 to 6.52 | < 6.00 | 6.00 to 6.30 | 6.52 to 6.70 | 6.30 to 6.52 | < 6.00
3 | C=CC(=O)Nc1cc2c(Nc3ccc(OCc4ccccn4)c(Cl)c3)ncnc2cc1OCC1(CN(C)C)CC1 [compound 98, N-(4-((3-chloro-4-(pyridin-2-ylmethoxy)phenyl)amino)-7-((1-((dimethylamino)methyl)cyclopropyl)methoxy)quinazolin-6-yl)acrylamide] | 6.52 to 6.70 | 7.30 to 7.52 | 7.52 to 7.70 | 6.52 to 6.70 | 6.52 to 6.70 | 7.30 to 7.52 | 7.52 to 7.70 | 6.52 to 6.70
4 | C=CC(=O)Nc1cc2c(Nc3ccc(OCc4ccccn4)c(Cl)c3)ncnc2cc1N1CCC(N(C)C)C1 (centres unmarked) [compound 64] | < 6.00 | 6.70 to 7.00 | 6.30 to 6.52 | < 6.00 | < 6.00 | 6.70 to 7.00 | 6.30 to 6.52 | < 6.00
5 | C=CC(=O)Nc1cc2c(Nc3ccc(OCc4ccccn4)c(Cl)c3)ncnc2cc1C#C[C@@H]1CCCN1C [compound 87, N-(4-((3-chloro-4-(pyridin-2-ylmethoxy)phenyl)amino)-7-((1-methylpyrrolidin-2-yl)ethynyl)quinazolin-6-yl)acrylamide] | < 6.00 | 6.70 to 7.00 | 7.30 to 7.52 | 6.52 to 6.70 | < 6.00 | 6.70 to 7.00 | 7.30 to 7.52 | 6.52 to 6.70
6 | C=CC(=O)Nc1cc2c(Nc3ccc(OCc4cccc(C)n4)c(Cl)c3)ncnc2cc1OCCN1CCN(C)CC1 [compound 137] | 6.52 to 6.70 | 7.00 to 7.30 | 7.00 to 7.30 | 6.30 to 6.52 | 6.52 to 6.70 | 7.00 to 7.30 | 7.00 to 7.30 | 6.30 to 6.52
7 | C=CC(=O)Nc1cc2c(Nc3ccc(OCc4cccnn4)c(Cl)c3)ncnc2cc1OCCN1CCOCC1 [compound 171] | < 6.00 | 7.00 to 7.30 | 7.00 to 7.30 | 6.30 to 6.52 | < 6.00 | 7.00 to 7.30 | 7.00 to 7.30 | 6.30 to 6.52
8 | C=CC(=O)Nc1cc2c(Nc3ccc(CC(=O)c4ccccn4)c(Cl)c3)ncnc2cc1O[C@@H]1CCN(C)C1 [compound 121] | < 6.00 | 6.70 to 7.00 | 7.30 to 7.52 | 6.30 to 6.52 | < 6.00 | 6.70 to 7.00 | 7.30 to 7.52 | 6.30 to 6.52
9 | COC/C=C/C(=O)Nc1cc2c(Nc3ccc(OCc4ccccn4)c(Cl)c3)ncnc2cc1OCCN1CCOCC1 [compound 112, (E)-N-(4-((3-chloro-4-(pyridin-2-ylmethoxy)phenyl)amino)-7-(2-morpholinoethoxy)quinazolin-6-yl)-4-methoxybut-2-enamide] | 6.30 to 6.52 | 6.70 to 7.00 | 6.30 to 6.52 | < 6.00 | 6.30 to 6.52 | 6.70 to 7.00 | 6.30 to 6.52 | < 6.00
10 | C=CC(=O)Nc1cc2c(Nc3ccc(OCc4ccccn4)c(Cl)c3)ncnc2cc1C#C[C@@H]1[C@H]2CN(C3COC3)C[C@@H]12 [compound 113, N-(4-((3-chloro-4-(pyridin-2-ylmethoxy)phenyl)amino)-7-(((1R,5S,6s)-3-(oxetan-3-yl)-3-azabicyclo[3.1.0]hexan-6-yl)ethynyl)quinazolin-6-yl)acrylamide] | 6.00 to 6.30 | 7.00 to 7.30 | 7.30 to 7.52 | 6.70 to 7.00 | 6.00 to 6.30 | 7.00 to 7.30 | 7.30 to 7.52 | 6.70 to 7.00

From US11034672B1, “Tyrosine kinase inhibitor compositions, methods of making and methods of use” (Black Diamond Therapeutics, Inc., priority 2018, dated 2021)
